Data taken from ChEMBL document CHEMBL1145293, “Synthesis and SAR of GlyT1 inhibitors derived from a series of N-((4-(morpholine-4-carbonyl)-1-(propylsulfonyl)piperidin-4-yl)methyl)benzamides” (Bioorg Med Chem Lett, 2006).
≈ marks a conversion by molar mass, not a printed value.

Legend:
[1] = biological target: T1, Sodium- and chloride-dependent glycine transporter 2 (Homo sapiens, UniProt Q9Y345); assay: Inhibition of human GlyT2
T1 sequence (Q9Y345 whole entry): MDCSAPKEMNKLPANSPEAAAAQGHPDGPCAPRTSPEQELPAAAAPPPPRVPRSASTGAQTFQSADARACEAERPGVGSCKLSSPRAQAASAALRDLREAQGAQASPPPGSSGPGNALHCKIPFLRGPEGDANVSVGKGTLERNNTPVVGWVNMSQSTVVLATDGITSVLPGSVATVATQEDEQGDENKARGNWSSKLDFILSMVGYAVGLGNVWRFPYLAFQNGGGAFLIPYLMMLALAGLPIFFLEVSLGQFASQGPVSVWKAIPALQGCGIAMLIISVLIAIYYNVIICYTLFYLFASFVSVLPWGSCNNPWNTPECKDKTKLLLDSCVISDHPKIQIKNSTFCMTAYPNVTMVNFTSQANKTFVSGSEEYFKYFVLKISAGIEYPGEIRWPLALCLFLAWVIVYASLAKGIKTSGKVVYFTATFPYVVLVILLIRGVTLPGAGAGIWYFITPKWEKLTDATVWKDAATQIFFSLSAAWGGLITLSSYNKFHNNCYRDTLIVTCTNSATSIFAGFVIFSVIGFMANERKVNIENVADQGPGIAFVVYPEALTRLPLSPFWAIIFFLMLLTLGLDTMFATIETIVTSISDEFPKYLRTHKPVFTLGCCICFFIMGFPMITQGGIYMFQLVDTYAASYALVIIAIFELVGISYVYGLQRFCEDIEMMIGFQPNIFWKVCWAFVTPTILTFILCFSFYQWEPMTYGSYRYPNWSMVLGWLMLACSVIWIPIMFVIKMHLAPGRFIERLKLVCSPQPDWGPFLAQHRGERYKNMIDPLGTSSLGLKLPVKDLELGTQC

[2] = biological target: T2, Sodium- and chloride-dependent glycine transporter 1 (Homo sapiens, UniProt P48067); assay: Inhibition of human GlyT1
T2 sequence (P48067 whole entry): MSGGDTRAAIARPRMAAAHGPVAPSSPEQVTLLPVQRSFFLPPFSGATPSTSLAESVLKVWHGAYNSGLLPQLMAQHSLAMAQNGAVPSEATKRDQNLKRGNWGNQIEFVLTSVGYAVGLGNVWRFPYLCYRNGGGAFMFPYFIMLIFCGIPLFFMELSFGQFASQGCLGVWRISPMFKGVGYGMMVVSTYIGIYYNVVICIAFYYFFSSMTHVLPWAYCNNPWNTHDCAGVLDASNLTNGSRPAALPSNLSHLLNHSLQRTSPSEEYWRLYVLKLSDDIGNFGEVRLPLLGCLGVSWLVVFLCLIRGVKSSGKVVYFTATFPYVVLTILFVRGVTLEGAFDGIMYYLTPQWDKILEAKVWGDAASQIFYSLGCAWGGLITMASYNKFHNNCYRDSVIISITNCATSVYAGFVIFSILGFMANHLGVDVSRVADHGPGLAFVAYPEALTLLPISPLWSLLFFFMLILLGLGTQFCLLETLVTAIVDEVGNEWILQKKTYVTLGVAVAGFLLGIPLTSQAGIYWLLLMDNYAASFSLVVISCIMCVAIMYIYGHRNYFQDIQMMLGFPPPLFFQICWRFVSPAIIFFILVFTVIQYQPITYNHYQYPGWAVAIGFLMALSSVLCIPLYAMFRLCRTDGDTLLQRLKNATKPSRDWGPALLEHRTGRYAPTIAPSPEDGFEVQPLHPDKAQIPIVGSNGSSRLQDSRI

[3] = biological target: T3, Sodium- and chloride-dependent taurine transporter (Homo sapiens, UniProt P31641); assay: Inhibition of human TauT
T3 sequence (P31641 whole entry): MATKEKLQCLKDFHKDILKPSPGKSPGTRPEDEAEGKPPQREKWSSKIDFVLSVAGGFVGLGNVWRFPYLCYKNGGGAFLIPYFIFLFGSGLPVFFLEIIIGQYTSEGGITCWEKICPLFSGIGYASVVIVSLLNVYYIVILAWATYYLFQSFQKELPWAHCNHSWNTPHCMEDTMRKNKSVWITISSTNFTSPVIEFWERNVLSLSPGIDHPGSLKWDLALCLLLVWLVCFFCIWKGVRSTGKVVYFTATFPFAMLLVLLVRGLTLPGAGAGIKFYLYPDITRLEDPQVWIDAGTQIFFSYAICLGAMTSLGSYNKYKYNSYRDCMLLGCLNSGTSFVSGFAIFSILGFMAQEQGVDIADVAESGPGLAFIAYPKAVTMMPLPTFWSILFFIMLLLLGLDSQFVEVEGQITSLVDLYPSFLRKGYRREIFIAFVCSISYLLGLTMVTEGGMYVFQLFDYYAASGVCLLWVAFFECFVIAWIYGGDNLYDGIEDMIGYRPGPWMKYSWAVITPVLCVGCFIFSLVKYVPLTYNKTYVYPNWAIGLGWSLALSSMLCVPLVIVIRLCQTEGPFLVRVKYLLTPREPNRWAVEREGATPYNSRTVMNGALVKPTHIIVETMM

[4] = biological target: Cytochrome P450 2C9 (Homo sapiens, UniProt P11712); assay: Inhibition of CYP2C9; format: ADME
Cytochrome P450 2C9, sequence (P11712 whole entry): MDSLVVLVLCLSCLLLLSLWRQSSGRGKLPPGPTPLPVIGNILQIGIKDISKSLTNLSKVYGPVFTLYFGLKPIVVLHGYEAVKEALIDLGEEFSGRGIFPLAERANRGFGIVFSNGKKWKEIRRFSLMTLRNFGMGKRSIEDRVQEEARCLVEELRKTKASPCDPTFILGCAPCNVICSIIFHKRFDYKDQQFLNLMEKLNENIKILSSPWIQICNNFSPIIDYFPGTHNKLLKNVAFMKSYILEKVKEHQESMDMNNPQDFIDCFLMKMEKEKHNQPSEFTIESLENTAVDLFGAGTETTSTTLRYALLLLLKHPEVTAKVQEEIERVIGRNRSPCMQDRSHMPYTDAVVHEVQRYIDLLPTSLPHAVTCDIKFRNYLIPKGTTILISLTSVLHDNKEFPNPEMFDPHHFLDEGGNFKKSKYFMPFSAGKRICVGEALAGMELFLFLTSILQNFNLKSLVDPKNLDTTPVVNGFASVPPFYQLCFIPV

[5] = Aqueous solubility of the compound; format: physicochemical
[6] = biological target: Cytochrome P450 3A4 (Homo sapiens, UniProt P08684); assay: Inhibition of CYP3A4; format: ADME
Cytochrome P450 3A4, sequence (P08684 whole entry): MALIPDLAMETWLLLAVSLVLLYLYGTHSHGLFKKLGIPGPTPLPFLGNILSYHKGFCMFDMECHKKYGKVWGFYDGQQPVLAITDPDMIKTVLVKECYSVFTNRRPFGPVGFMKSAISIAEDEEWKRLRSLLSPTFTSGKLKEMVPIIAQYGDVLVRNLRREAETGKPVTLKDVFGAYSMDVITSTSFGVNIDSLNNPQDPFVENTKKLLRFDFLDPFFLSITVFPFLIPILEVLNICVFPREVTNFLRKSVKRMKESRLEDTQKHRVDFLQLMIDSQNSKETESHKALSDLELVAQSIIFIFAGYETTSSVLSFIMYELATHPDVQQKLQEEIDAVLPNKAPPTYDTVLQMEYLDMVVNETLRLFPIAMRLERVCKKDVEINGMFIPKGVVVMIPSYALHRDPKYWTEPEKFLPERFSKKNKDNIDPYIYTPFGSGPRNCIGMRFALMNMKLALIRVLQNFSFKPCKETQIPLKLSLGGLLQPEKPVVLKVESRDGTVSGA

[7] = Apparent permeability in Caco-2 cells; format: ADME, cell-based; conditions: human
[8] = Half life in rat; format: ADME, organism-based; conditions: in vivo
[9] = test system: Caco-2; assay: Ratio of permeability from basolateral to apical over apical to basolateral side of Caco-2 cell expressing mouse p-glycoprotein; format: ADME, cell-based; conditions: human
[10] = Partition coefficient, log P of the compound; format: physicochemical; conditions: octanol/water
[11] = biological target: Cytochrome P450 2D6 (Homo sapiens, UniProt P10635); assay: Inhibition of CYP2D6; format: ADME
Cytochrome P450 2D6, sequence (P10635 whole entry): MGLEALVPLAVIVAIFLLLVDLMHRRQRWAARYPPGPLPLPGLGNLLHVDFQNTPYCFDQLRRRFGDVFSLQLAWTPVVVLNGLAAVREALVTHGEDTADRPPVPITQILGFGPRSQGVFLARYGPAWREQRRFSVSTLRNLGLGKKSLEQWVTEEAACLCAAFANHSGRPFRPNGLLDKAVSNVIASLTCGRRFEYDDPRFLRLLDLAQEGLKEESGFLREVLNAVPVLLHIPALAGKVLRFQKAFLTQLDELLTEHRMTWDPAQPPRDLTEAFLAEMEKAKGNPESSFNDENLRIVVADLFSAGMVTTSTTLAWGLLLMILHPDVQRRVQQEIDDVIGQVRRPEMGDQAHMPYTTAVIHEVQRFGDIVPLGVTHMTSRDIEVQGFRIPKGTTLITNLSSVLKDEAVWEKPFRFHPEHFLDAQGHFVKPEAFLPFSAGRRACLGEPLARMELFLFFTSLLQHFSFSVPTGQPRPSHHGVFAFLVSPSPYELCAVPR

[12] = test system: Caco-2; assay: Ratio of permeability from basolateral to apical over apical to basolateral side of Caco-2 cell expressing human p-glycoprotein; format: ADME, cell-based
[13] = Clearance in rat; format: ADME, organism-based; conditions: in vivo

| SMILES | IC50 [1] | IC50 [2] | IC50 [3] | Activity [4] | solubility [5] | Activity [6] | Papp [7] | half-life [8] | Ratio [9] | logP [10] | Activity [11] | Ratio [12] | clearance [13] |
| --- | --- | --- | --- | --- | --- | --- | --- | --- | --- | --- | --- | --- | --- |
| CCCS(=O)(=O)N1CCC(CNC(=O)c2ccc(Cl)cc2Cl)(C(=O)C2CC2)CC1 | > 30 µM | 0.472 µM | > 30 µM | – | – | – | – | – | – | – | – | – | – |
| CCCS(=O)(=O)N1CCC(CNC(=O)C2CC2)(C(=O)N2CCOCC2)CC1 | > 30 µM | > 5 µM | > 30 µM | Not Active | 10000 µg/mL (≈ 24.9 mM) | Not Active | > 22 ×10⁻⁶ cm/s | 18 min | 8.9 | < 1.4 | Not Active | 10.6 | 18 mL/min/kg |
| CCCS(=O)(=O)N1CCC(CNC(=O)c2ccccc2)(C(=O)N2CCOCC2)CC1 | > 30 µM | 0.264 µM | > 30 µM | Not Active | 10000 µg/mL (≈ 22.9 mM) | Not Active | > 22 ×10⁻⁶ cm/s | 18 min | 8.9 | < 1.4 | Not Active | 10.6 | 18 mL/min/kg |
| CCCS(=O)(=O)N1CCC(CNC(=O)c2ccccc2OC(F)(F)F)(C(=O)N2CCOCC2)CC1 | > 30 µM | 0.0884 µM | > 30 µM | Not Active | 10000 µg/mL (≈ 19.2 mM) | Not Active | > 22 ×10⁻⁶ cm/s | 18 min | 8.9 | < 1.4 | Not Active | 10.6 | 18 mL/min/kg |
| CCCS(=O)(=O)N1CCC(CNC(=O)c2ccc(Cl)cc2Cl)(C(=O)NCC)CC1 | > 30 µM | 0.517 µM | > 30 µM | – | – | – | – | – | – | – | – | – | – |
| CCCS(=O)(=O)N1CCC(CNC(=O)c2ccc(Cl)cc2Cl)(C(=O)N2CCC(N(C)C)C2)CC1 (centres undefined) | > 30 µM | 0.544 µM | > 30 µM | – | – | – | – | – | – | – | – | – | – |
| CCCS(=O)(=O)N1CCC(CNC(=O)c2c(F)cccc2F)(C(=O)N2CCOCC2)CC1 | > 30 µM | 0.131 µM | > 30 µM | Not Active | 10000 µg/mL (≈ 21.1 mM) | Not Active | > 22 ×10⁻⁶ cm/s | 18 min | 8.9 | < 1.4 | Not Active | 10.6 | 18 mL/min/kg |
| CCCS(=O)(=O)N1CCC(C(=O)N2CCOCC2)([C@H](C)NC(=O)c2ccc(Cl)cc2Cl)CC1 | – | > 5 µM | – | – | – | – | – | – | – | – | – | – | – |
| CCCS(=O)(=O)N1CCC(CNC(=O)c2ccc(Cl)cc2Cl)(C(=O)N2CC(N)C2)CC1 | > 30 µM | 0.109 µM | > 30 µM | – | – | – | – | – | – | – | – | – | – |
| CCCS(=O)(=O)N1CCC(CNC(=O)c2ccc(C(F)(F)F)cc2F)(C(=O)N2CCOCC2)CC1 | > 30 µM | 0.0428 µM | > 30 µM | Not Active | 10000 µg/mL (≈ 19.1 mM) | Not Active | > 22 ×10⁻⁶ cm/s | 18 min | 8.9 | < 1.4 | Not Active | 10.6 | 18 mL/min/kg |
| CCCS(=O)(=O)N1CCC(CNC(=O)c2ccc(F)cc2C(F)(F)F)(C(=O)N2CCOCC2)CC1 | > 30 µM | 0.0678 µM | > 30 µM | Not Active | 10000 µg/mL (≈ 19.1 mM) | Not Active | > 22 ×10⁻⁶ cm/s | 18 min | 8.9 | < 1.4 | Not Active | 10.6 | 18 mL/min/kg |
| CCCS(=O)(=O)N1CCC(CNC(=O)c2ccc(Cl)cc2Cl)(C(=O)NCC2(C)COC2)CC1 | > 30 µM | 0.069 µM | > 30 µM | – | – | – | – | – | – | – | – | – | – |
| CCCS(=O)(=O)N1CCC(CNC(=O)CC)(C(=O)N2CCOCC2)CC1 | > 30 µM | > 5 µM | > 30 µM | Not Active | 10000 µg/mL (≈ 25.7 mM) | Not Active | > 22 ×10⁻⁶ cm/s | 18 min | 8.9 | < 1.4 | Not Active | 10.6 | 18 mL/min/kg |
| CCCS(=O)(=O)N1CCC(C(=O)N2CCOCC2)([C@@H](C)NC(=O)c2ccc(Cl)cc2Cl)CC1 | – | > 5 µM | – | – | – | – | – | – | – | – | – | – | – |
| CCCS(=O)(=O)N1CCC(CNC(=O)c2ccc(Cl)cc2Cl)(C(=O)N(C)C)CC1 | > 30 µM | 0.181 µM | > 30 µM | – | – | – | – | – | – | – | – | – | – |
| CCCS(=O)(=O)N1CCC(CNC(=O)c2ccc(Cl)cc2Cl)(C(=O)N2CCN(C)CC2)CC1 | > 30 µM | > 5 µM | > 30 µM | – | – | – | – | – | – | – | – | – | – |
